Tests used:
Bcl-2 = test: Western blot of Bcl-2 in mitochondrial extracts (mobility shift); format: cell-based, human; details: A2780wt treated 24h with PTX 1 µM
Procedure: (§1) Cells, harvested in cold phosphate-buffered saline, were extracted for 30 min at 4 °C in lysis buffer (50 mM Tris-HCl, pH 7.4, 150 mM NaCl, 1% NP-40) containing 1mM DTT, protease inhibitor cocktail (Roche) and phosphatase inhibitors (50 mM NaF, 0.2 mM Na3VO4). Mitochondria isolation was performed as previously described (Ferlini et al., 2003). After centrifugation, supernatants (300 µg from total lysates and 100 µg from mitochondrial extracts) were immunoprecipitated at 4 °C overnight in lysis buffer by adding protein A/G plus-agarose beads (Santa Cruz Biotechnology) after 2 h of incubation with 2 µg of the following antibodies: anti-Bcl-2 (N19, Santa Cruz Biotechnology), anti-Bcl-2 (clone 124, Dako), anti-Bcl-2 BH3 domain (Abgent), anti-Nur77 (Imgenex), anti-β-tubulin (H235, Santa Cruz Biotechnology), anti-class III β-tubulin polyclonal antibody (Covance) and isotype-matched non-immune IgG (Sigma) as control. […]
It has already been shown that Bcl-2 is phosphorylated following exposure to PTX and that phosphorylation occurs in the disordered loop of Bcl-2 (Haldar et al., 1996; Fang et al., 1998). In order to investigate if Nur77, like PTX, is able to induce Bcl-2 mobility shifts, A2780 and TC1 cell lines overexpressing Nur77 (thereafter referred to as A2780Nur77 and TC1Nur77) were established and Bcl-2 status was analysed. […]

Bcl2/Nur77 complex = molecular target: T1, Bcl2/Nur77 complex (Homo sapiens, UniProt P10415); test: Co-immunoprecipitation of Nur77 with Bcl-2 in the presence of PTX; format: binding; details: whole cell lysates from A2780, PTX 10 µM, 2 h at 4 °C
T1 construct: endogenous in cells; host or cells: A2780 (human ovarian cancer) whole cell lysate
Procedure: as §1
The significant similarity between the binding sites of the two PTX target proteins resulted from molecular modeling studies prompted the authors to investigate the possibility that PTX is a peptidomimetic compound. […] In order to assess this hypothesis, recombinant histidine-tagged Nur77 was purified and the interaction with in vitro produced Bcl-2 and Bcl-2Δ labeled with ^35S-methionine was analyzed. […]

[1] = system: mitochondria freshly isolated from TC1-Bcl-2 cells; test: Flow cytometric assessment of Δψm in freshly isolated mitochondria (Rhodamine 123); format: cell-based, human; details: PTX 10 µM, 60 min; mitochondria from TC1-Bcl-2; without treatment 8%
Procedure: (§2) Cell culture procedures and cell lines have been elsewhere described (Ferlini et al., 2003). Mitochondria were freshly isolated and mitochondrial transmembrane potential Δψm was assessed as previously described (Ferlini et al., 1995), using Rhodamine 123 (Molecular Probes) and a Facscan flow cytometer (Becton Dickinson).
(§3) Here, they used the human ovary A2780 cancer cell line and its counterpart TC1 (Ferlini et al., 2003) with acquired PTX-resistance. […] Since the homology between the Bcl-2 and Bcl-xL is high, with the exception of the loop domain, TC1 cells were stably transfected with a construct in which the loop domain of Bcl-2 (aa 35-91) was deleted and replaced with a linker sequence of four alanine residues, as previously described by Chang et al. (Chang et al., 1997). These cells are thereafter referred to as TC1 Bcl-2Δ. Mitochondria were freshly isolated from these cells and were treated with PTX (10 µM). This concentration has a clinical relevance since it corresponds to the intracellular concentration achievable in patients. (Andre et al., 2000).
(§4) The status of mitochondrial transmembrane potential (Δψm) was then monitored using the cationic fluorochrome Rhodamine 123 and flow cytometry. Results of these experiments are depicted in Fig. 1B. […] In fact, as reported in Fig. 1B the percentage of mitochondria with full leakage of the Δψm pass from 18% to 78%. […] In TC1-Bcl-2 cells, the sensitivity to PTX treatment was restored and again the vast majority of treated mitochondria were able to open the PTPC upon PTX treatment and dissipate the Δψm (from 8% to 82%). […] Taken together, these findings indicate that PTX is able to convert Bcl-2 in a factor proficient to activate the opening of PTPC and that such activity requires the presence of Bcl-2 loop domain, since it is not longer detectable in mitochondria from TC1-Bcl-2Δ cells.

[2] = system: mitochondria freshly isolated from TC1 cells; test: as above; format: cell-based, human; details: PTX 10 µM, 60 min; mitochondria from TC1 (undetectable Bcl-2); without treatment 16%
Procedure: as §2, §3, §4

[3] = system: mitochondria freshly isolated from A2780wt cells; test: as above; format: cell-based, human; details: PTX 10 µM, 60 min, without treatment 18%
Procedure: as §2, §3, §4

[4] = system: mitochondria freshly isolated from TC1-Bcl-2Δ cells; test: as above; format: cell-based, human; details: PTX 10 µM, 60 min; mitochondria from TC1-Bcl-2Δ; without treatment 14%
Procedure: as §2, §3, §4

T1 sequence (P10415 whole entry, one chain of several): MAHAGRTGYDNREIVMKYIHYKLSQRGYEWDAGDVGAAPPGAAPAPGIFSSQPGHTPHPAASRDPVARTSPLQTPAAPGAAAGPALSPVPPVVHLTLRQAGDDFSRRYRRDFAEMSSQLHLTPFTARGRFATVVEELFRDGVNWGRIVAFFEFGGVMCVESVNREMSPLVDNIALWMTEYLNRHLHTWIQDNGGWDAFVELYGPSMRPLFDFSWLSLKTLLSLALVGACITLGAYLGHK

CC(=O)O[C@H]1C(=O)[C@@]2(C)[C@H]([C@H](OC(=O)c3ccccc3)[C@]3(O)C[C@H](OC(=O)[C@H](O)[C@@H](NC(=O)c4ccccc4)c4ccccc4)C(C)=C1C3(C)C)[C@]1(OC(C)=O)CO[C@@H]1C[C@@H]2O [PTX, paclitaxel]
slow mobility band of Bcl-2 (Bcl-2): slow mobility band was detectable | displacement of Nur77 from Bcl-2 (Bcl2/Nur77 complex): able to displace Nur77 from Bcl-2 | mitochondria that open the PTPC and dissipate the Δψm [1]: 82% | number of mitochondria with the leakage of Δψm [2]: 26% | percentage of mitochondria with full leakage of the Δψm [3]: 78% | mitochondria with changed Δψm status [4]: 20%
